PMC5902630, “A Firefly Luciferase Dual Color Bioluminescence Reporter Assay Using Two Substrates To Simultaneously Monitor Two Gene Expression Events” (Scientific Reports, 2018)

What was measured:
[1] = biological target: PLG3 (Photinus pyralis, UniProt P08659, F250T/L291I/Y340F/F465R, form not given); assay: bioluminescence burst (maximal light intensity), Michaelis-Menten fit; assay type: biochemical; conditions: 2 mM Mg-ATP, 50 mM Tricine, pH 7.8; read-out: Km (μM) / BtLH2
Source text: bioluminescence burst (maximal light intensity), Michaelis-Menten fit on PLG3

[2] = biological target: PLR1 (Photinus pyralis, UniProt P08659, Y255F/S284T, form not given); assay: as above; assay type: biochemical; conditions: 2 mM Mg-ATP, 50 mM Tricine, pH 7.8; read-out: Km (μM) / BtLH2
Chain of PLR1 (P08659 whole entry Y255F/S284T, form open): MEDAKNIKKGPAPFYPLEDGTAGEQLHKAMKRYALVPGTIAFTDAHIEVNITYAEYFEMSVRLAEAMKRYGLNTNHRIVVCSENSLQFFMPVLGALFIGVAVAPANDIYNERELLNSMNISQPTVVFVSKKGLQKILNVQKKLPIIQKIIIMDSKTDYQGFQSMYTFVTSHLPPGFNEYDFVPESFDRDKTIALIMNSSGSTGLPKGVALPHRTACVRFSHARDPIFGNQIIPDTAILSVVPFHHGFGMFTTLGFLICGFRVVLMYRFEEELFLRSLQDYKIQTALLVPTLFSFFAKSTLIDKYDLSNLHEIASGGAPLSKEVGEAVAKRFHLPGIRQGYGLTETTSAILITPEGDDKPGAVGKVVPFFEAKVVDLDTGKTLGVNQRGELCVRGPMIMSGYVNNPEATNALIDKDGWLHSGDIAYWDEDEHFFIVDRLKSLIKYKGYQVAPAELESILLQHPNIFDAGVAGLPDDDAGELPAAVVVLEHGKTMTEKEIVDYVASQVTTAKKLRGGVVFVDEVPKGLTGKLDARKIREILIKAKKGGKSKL
Source text: bioluminescence burst (maximal light intensity), Michaelis-Menten fit on PLR1

Chain of PLG3 (P08659 whole entry F250T/L291I/Y340F/F465R, form open): as the sequence (P08659 whole entry Y255F/S284T, form open) above, with F250T, F255Y, T284S, L291I, Y340F, F465R counted along it

O=C(O)[C@H]1CSC(c2cc3ccc(O)cc3s2)=N1 [BtLH2]
Km [1]: 5 ± 1 µM
Km [2]: 28 ± 3 µM
